Assay results published in patent USRE38551E1, “Anticonvulsant enantiomeric amino acid derivatives” (priority 1996, dated 2004).
Marks after values point to notes of the source that are not given here.

Tests used:
[1] = tested on: liver; settings: rats, p.o., short term
[2] = tested on: Crl:CoBs CD(SD) rats; experiment: thirty-day dose range finding study of Compound A in rats; settings: for BR - BRAIN W/STEM organ to terminal body weight ratio mean / HT - HEART organ to terminal body weight ratio mean / KD - KIDNEY organ to terminal body weight ratio mean / LI - LIVER organ to terminal body weight ratio mean / SP - SPLEEN organ to terminal body weight ratio mean / dilated pelves of kidneys, number of animals / TP - TESTIS/EPIDID organ to terminal body weight ratio mean: 30 days oral
Experimental: More specifically, 50 male and 50 female Crl:CoBs® CD(SD) selected from 68 male and 68 female rats (4 weeks old) were used as test animals in the study 1. The rats were housed individually in elevated wire mesh cages with food (Purina Certified Rodent Chow® 5002) and tap water (via an automated watering system) available ad libitum. Each batch of feed utilized was analyzed by the manufacturer for concentrations of specified heavy metals, aflatoxin, chlorinated hydrocarbons, organophosphates, and specified nutrients.
An artificial light cycle of 12 hours light and 12 hours dark was maintained.
The rats were selected for use on the study using a computer-generated weight randomization procedure and assigned to the following groups:
Following randomization, the rats were identified with an ear tag bearing a unique permanent identification number. The rats were randomly assigned to treatment groups by first eliminating the ones with extreme body weights (±2 standard deviations from the mean body weight).
The desired amount of carboxymethyl cellulose was weighed on an appropriate (milligram) balance, transferred to a precalibrated beaker containing two-thirds of the total value of distilled water, and stirred on a magnetic stirrer until a solution formed. Distilled water was then added to final volume and stirred to achieve a 0.5% w/v solution.
Compound A was first ground into a powder. The desired amount for each dose level as weighed on an appropriate (milligram) balance and transferred into a precalibrated beaker. A small amount (0.5 to 4ml) of 0.5% carboxymethyl cellulose was added to Compound A and mixed to form a paste. […] Fresh suspensions of Compound A were prepared daily and fresh solutions of 0.5% carboxymethyl cellulose were prepared weekly and stored refrigerated.
Each rat received Compound A at a dosage factor of 10 milliliters per kilogram of body weight via gavage between 9 a.m. and noon each day. The dosing volume for each rat was calculated and adjusted weekly by the computer from the most recently recorded individual body weight.
Compound A was administered orally.
All rats were observed twice daily for mortality and moribundity. Clinical observations were made prior to dosing and at 1 and 4 hours after dosing. All signs were recorded as they were observed. Individual body weights were recorded at initiation of treatment, at weekly intervals, and at termination while food consumption was recorded weekly.
Following 30 or 31 days of treatment, surviving rats were weighed, anesthetized, and exsanguinated under sodium pentobarbital anesthesia. Complete necropsies were performed on each rat by appropriately trained personnel using procedures approved by board-certified pathologists. Necropsy included examination of the following:
Various organs were weighted and compared to the control, e.g., brain with stem, heart, spleen, kidney, liver, sex organs.

[3] = female, group 5, 1000 mg/kg/day

SMILES: COC[C@@H](NC(C)=O)C(=O)NCc1ccccc1 [Ex. 1, 2, (R)-N-Benzyl-2-Acetamide-3-methoxypropionamide]
- liver necrosis ([1]; 3.9 or 100 mg/kg daily): no evidence of causing liver necrosis
- liability for serious drug-drug interactions and liver toxicity (battery of liver enzyme studies) [1]: relatively low

SMILES: CC(=O)NC(C)C(=O)NCc1ccccc1 (racemic) [compound 1, N-Acetyl-D,L-alanine-N′-benzylamide]
- mean kidney weight ([2]; Group 5 males (1000 mg/kg/day × 30 days)): small increase
- BR - BRAIN W/STEM organ to terminal body weight ratio mean ([2]; female, group 2, 30 mg/kg/day): .887%
- HT - HEART organ to terminal body weight ratio mean ([2]; female, group 2, 30 mg/kg/day): .372%
- KD - KIDNEY organ to terminal body weight ratio mean ([2]; female, group 2, 30 mg/kg/day): .773%
- LI - LIVER organ to terminal body weight ratio mean ([2]; female, group 2, 30 mg/kg/day): 3.122%
- SP - SPLEEN organ to terminal body weight ratio mean ([2]; female, group 2, 30 mg/kg/day): .204%
- BR - BRAIN W/STEM organ to terminal body weight ratio mean ([2]; female, group 3, 100 mg/kg/day): .899%
- HT - HEART organ to terminal body weight ratio mean ([2]; female, group 3, 100 mg/kg/day): .345%
- KD - KIDNEY organ to terminal body weight ratio mean ([2]; female, group 3, 100 mg/kg/day): .768%
- LI - LIVER organ to terminal body weight ratio mean ([2]; female, group 3, 100 mg/kg/day): 3.166%
- SP - SPLEEN organ to terminal body weight ratio mean ([2]; female, group 3, 100 mg/kg/day): .200%
- BR - BRAIN W/STEM organ to terminal body weight ratio mean ([2]; female, group 4, 300 mg/kg/day): .934%
- HT - HEART organ to terminal body weight ratio mean ([2]; female, group 4, 300 mg/kg/day): .373%
- KD - KIDNEY organ to terminal body weight ratio mean ([2]; female, group 4, 300 mg/kg/day): .770%
- LI - LIVER organ to terminal body weight ratio mean ([2]; female, group 4, 300 mg/kg/day): 3.172%
- SP - SPLEEN organ to terminal body weight ratio mean ([2]; female, group 4, 300 mg/kg/day): .198%
- BR - BRAIN W/STEM organ to terminal body weight ratio mean [2, 3]: .891%
- HT - HEART organ to terminal body weight ratio mean [2, 3]: .347%
- KD - KIDNEY organ to terminal body weight ratio mean [2, 3]: .763%
- LI - LIVER organ to terminal body weight ratio mean [2, 3]: 3.739* %
- SP - SPLEEN organ to terminal body weight ratio mean [2, 3]: .189%
- dilated pelves of kidneys, number of animals ([2]; females, Group 5 (1000 mg/kg/day)): two
- BR - BRAIN W/STEM organ to terminal body weight ratio mean ([2]; male, group 2, 30 mg/kg/day): .593%
- HT - HEART organ to terminal body weight ratio mean ([2]; male, group 2, 30 mg/kg/day): .313%
- KD - KIDNEY organ to terminal body weight ratio mean ([2]; male, group 2, 30 mg/kg/day): .719%
- LI - LIVER organ to terminal body weight ratio mean ([2]; male, group 2, 30 mg/kg/day): 2.849%
- SP - SPLEEN organ to terminal body weight ratio mean ([2]; male, group 2, 30 mg/kg/day): .172%
- TP - TESTIS/EPIDID organ to terminal body weight ratio mean ([2]; male, group 2, 30 mg/kg/day): 1.265%
- BR - BRAIN W/STEM organ to terminal body weight ratio mean ([2]; male, group 3, 100 mg/kg/day): .599%
- HT - HEART organ to terminal body weight ratio mean ([2]; male, group 3, 100 mg/kg/day): .314%
- KD - KIDNEY organ to terminal body weight ratio mean ([2]; male, group 3, 100 mg/kg/day): .694%
- LI - LIVER organ to terminal body weight ratio mean ([2]; male, group 3, 100 mg/kg/day): 3.059* %
- SP - SPLEEN organ to terminal body weight ratio mean ([2]; male, group 3, 100 mg/kg/day): .166%
- TP - TESTIS/EPIDID organ to terminal body weight ratio mean ([2]; male, group 3, 100 mg/kg/day): 1.219%
- dilated pelves of kidneys, number of animals ([2]; male, group 3, 100 mg/kg/day): one
- BR - BRAIN W/STEM organ to terminal body weight ratio mean ([2]; male, group 4, 300 mg/kg/day): .581%
- HT - HEART organ to terminal body weight ratio mean ([2]; male, group 4, 300 mg/kg/day): .328%
- KD - KIDNEY organ to terminal body weight ratio mean ([2]; male, group 4, 300 mg/kg/day): .695%
- LI - LIVER organ to terminal body weight ratio mean ([2]; male, group 4, 300 mg/kg/day): 3.101* %
- SP - SPLEEN organ to terminal body weight ratio mean ([2]; male, group 4, 300 mg/kg/day): .163%
- TP - TESTIS/EPIDID organ to terminal body weight ratio mean ([2]; male, group 4, 300 mg/kg/day): 1.212%
- dilated pelves of kidneys, number of animals ([2]; male, group 4, 300 mg/kg/day): one
- BR - BRAIN W/STEM organ to terminal body weight ratio mean ([2]; male, group 5, 1000 mg/kg/day): .571%
- HT - HEART organ to terminal body weight ratio mean ([2]; male, group 5, 1000 mg/kg/day): .343%
- KD - KIDNEY organ to terminal body weight ratio mean ([2]; male, group 5, 1000 mg/kg/day): .770%
- LI - LIVER organ to terminal body weight ratio mean ([2]; male, group 5, 1000 mg/kg/day): 3.683* %
- SP - SPLEEN organ to terminal body weight ratio mean ([2]; male, group 5, 1000 mg/kg/day): .176%
- TP - TESTIS/EPIDID organ to terminal body weight ratio mean ([2]; male, group 5, 1000 mg/kg/day): 1.202%
- mean liver weight ([2]; males of Groups 4 (300 mg/kg/day × 30 days) and 5 (1000 mg/kg/day × 30 days), Group 5 females): increased
- dilated pelves of kidneys, number of animals ([2]; males, Group 5 (1000 mg/kg/day)): three
- Safety Ratio daily dose; MES ([2]; rat, oral, 100 mg/kg/day × 30 days vs oral MES ED50): 2.1
- safety ratio, dose to signs of liver enlargement following 30 days medication relative to oral anti-convulsant dose ([2]; rats, threshold daily dose 100 mg/kg): 2.1
